This passage reports melting point, inhibition and IC50 results from patent US9737504B2, “Dihydroorotic and acid dehydrogenase inhibitor” (NAI INC., priority 2012, dated 2017).

The target in series [1] is T1, human DHOD (Homo sapiens, UniProt Q02127). The series is described as follows: Measurement of DHOD inhibitory activity (DCIP reduction, end point assay). The settings on record: for inhibition at 0.2 µM: read-out: DHOD inhibition rate (%) 200 nM, 200 nM compound; for IC50: read-out: IC50 (nM) human DHOD (HsDHOD). Format: biochemical. How it is done: The compounds of the present invention were used and measured for their DHOD inhibitory activity at concentrations of 200 nM and 1000 nM.
T1 sequence (Q02127 whole entry): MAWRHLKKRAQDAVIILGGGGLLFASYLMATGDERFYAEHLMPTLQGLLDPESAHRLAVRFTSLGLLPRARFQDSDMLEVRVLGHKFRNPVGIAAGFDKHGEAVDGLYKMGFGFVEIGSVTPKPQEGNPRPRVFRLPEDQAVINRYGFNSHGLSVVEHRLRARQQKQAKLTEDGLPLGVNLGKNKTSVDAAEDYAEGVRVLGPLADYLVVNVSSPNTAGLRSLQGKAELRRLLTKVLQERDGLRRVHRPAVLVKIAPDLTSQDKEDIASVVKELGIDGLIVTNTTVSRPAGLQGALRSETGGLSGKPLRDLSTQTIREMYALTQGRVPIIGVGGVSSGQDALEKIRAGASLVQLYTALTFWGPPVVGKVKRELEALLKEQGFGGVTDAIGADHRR
Reduction of DCIP was measured at 600 nm over 20 minutes.

Series [2] deals with T1, human DHOD. Described as above. Format: biochemical. The conditions noted are these: read-out: DHOD inhibition rate (%) 100 nM; 100 nM compound.

On to `COC(=O)c1cc(Cl)c(O)c(C/C=C(\C)CCC=C(C)C)c1O`, for which the melting point is 71 °C.

`C/C(=C\Cc1c(O)c(Cl)c(C)c(C=O)c1O)CC/C=C/COC(=O)C(C)(C)C` [07-11-116-4]: on human DHOD [1], the inhibition at 0.2 µM stood at 57% and the IC50 worked out at 146 ± 19 nM. Also, at human DHOD [2], the inhibition at 0.1 µM stood at 87%.

With `Cc1c(Cl)c(O)c(/C=C/CCCCCCOC(=O)C(C)C)c(O)c1C=O` [200-12-OCOiPr, (E)-8-(3-Chloro-5-formyl-2,6-dihydroxy-4-methylphenyl)-7-octenyl isobutylate], the melting point is 73 °C. Besides, at human DHOD [1], the inhibition at 0.2 µM was determined as 51% and the half-maximal inhibitory concentration (IC50) was 326 ± 41 nM. In addition, the inhibition at 0.1 µM on human DHOD [2] stood at 85%.

For the compound `Cc1c(Cl)c(O)c(/C=C/CCCCCCOC(=O)C(C)(C)C)c(O)c1C=O` [200-12-OPiv, (E)-8-(3-Chloro-5-formyl-2,6-dihydroxy-4-methylphenyl)-7-octenyl pivalate], the melting point was 57 to 58 °C.

On to `CCC(=O)OCCCCCCC/C=C/c1c(O)c(Cl)c(C)c(C=O)c1O` [200-13-OCOEt, (E)-9-(3-Chloro-5-formyl-2,6-dihydroxy-4-methylphenyl)-8-nonenyl propionate], for which the melting point is 72 to 73 °C.

Compound `Cc1c(Cl)c(O)c(/C=C/CCCCCCCOC(=O)C(C)(C)C)c(O)c1C=O` [200-13-OPiv, (E)-9-(3-Chloro-5-formyl-2,6-dihydroxy-4-methylphenyl)-8-nonenyl pivalate] had a melting point of 69 to 70 °C.

The compound `Cc1c(Cl)c(O)c(CCCCCCCC(=O)O)c(O)c1C=O` [215-9-COOH, 8-(3-Chloro-5-formyl-2,6-dihydroxy-4-methylphenyl)octanoic acid] showed a melting point of 149 to 150 °C.

As to `Cc1c(Cl)c(O)c(CCCCCCCCO)c(O)c1C=O` [215-9-OH, 5-Chloro-2,4-dihydroxy-3-(8-hydroxyoctyl)-6-methylbenzaldehyde], the melting point lay in the range of 129 to 130 °C.

On to `Cc1c(Cl)c(O)c(CCCCCCCOC(=O)C(C)(C)C)c(O)c1C=O` [215-11-OPiv, 7-(3-Chloro-5-formyl-2,6-dihydroxy-4-methylphenyl)heptyl pivalate], for which the melting point fell in the range of 63 to 64 °C.

In the case of `COC(=O)CCCCCCCCCc1c(O)c(Cl)c(C)c(C=O)c1O` [215-12-COOMe, Methyl 10-(3-chloro-5-formyl-2,6-dihydroxy-4-methylphenyl)decanate], the melting point was 87 to 88 °C.

`CCC(=O)OCCCCCCCCc1c(O)c(Cl)c(C)c(C=O)c1O` [215-12-OCOEt, 8-(3-Chloro-5-formyl-2,6-dihydroxy-4-methylphenyl)octyl propionate] returned a melting point of 63 to 64 °C.

`Cc1c(Cl)c(O)c(CCCCCCCCOC(=O)C(C)(C)C)c(O)c1C=O` [215-12-OPiv, 8-(3-Chloro-5-formyl-2,6-dihydroxy-4-methylphenyl)octyl pivalate] gave a melting point of 70 to 71 °C.

For the compound `Cc1c(Cl)c(O)c(CCCCCCCCCCCC(=O)O)c(O)c1C=O` [215-13-COOH, 12-(3-Chloro-5-formyl-2,6-dihydroxy-4-methylphenyl)dodecanoic acid], the melting point lay in the range of 130 to 131 °C.

On to `Cc1c(Cl)c(O)c(CCCCCCCCCC(=O)OC(C)C)c(O)c1C=O` [215-13-COO^IPr, Isopropyl 10-(3-chloro-2,6-dihydroxy-5-formyl-4-methylphenyl)decanate], for which the melting point is 49 °C.

Consider `Cc1c(Cl)c(O)c(CCCCCCCCCOC(=O)C(C)(C)C)c(O)c1C=O` [215-13-OPiv, 9-(3-Chloro-5-formyl-2,6-dihydroxy-4-methylphenyl)nonyl pivalate], for which the melting point is 62 °C.

For the compound `Cc1c(Cl)c(O)c(CCCCCCCCCCCC(=O)OC(C)C)c(O)c1C=O` [215-15-COO^IPr, Isopropyl 12-(3-chloro-5-formyl-2,6-dihydroxy-4-methylphenyl)dodecanate], the melting point lay in the range of 82 to 83 °C.

Turning to `COC(C)(C)CCC/C(C)=C/Cc1c(O)c(Cl)c(C)c(C=O)c1O` [231-9-OMe, 3-Chloro-4,6-dihydroxy-5-[(E)-7-methoxy-3,7-dimethyl-2-octeny]-2-methyl benzaldehyde], at human DHOD [1], the inhibition at 0.2 µM came to 75% and the IC50 is 67 ± 7 nM. In addition, the inhibition at 0.1 µM on human DHOD [2] came out at 98%.

As to `C/C(=C\Cc1c(O)c(Cl)c(C)c(C=O)c1O)CC/C=C(\C)COC(=O)C(C)(C)C` [234-12-OPiv, (2E,6E)-8-(3-Chloro-5-formyl-2,6-dihydroxy-4-methylphenyl)-2,6-dimethyl-2,6-octadienyl pivalate], on human DHOD [1], the inhibition at 0.2 µM was found to be 72% and the IC50 was 98 ± 5 nM. Further, at human DHOD [2], the inhibition at 0.1 µM came to 102%.

As for `C/C(=C\CC/C(C)=C/Cc1c(O)c(Cl)c(C)c(C=O)c1O)CO` [236-9-OH, 3-Chloro-4,6-dihydroxy-5-(2E,6E)-8-hydroxy-3,7-dimethyl-2,6-octadienyl-2-methylbenzaldehyde], the melting point was 99 to 99.7 °C. Also, on human DHOD [1], the inhibition at 0.2 µM stood at 82% and the IC50 worked out at 44 ± 5 nM. Also, on human DHOD [2], the inhibition at 0.1 µM came out at 103%.

`C/C(=C\Cc1c(O)c(Cl)c(C)c(C=O)c1O)CC/C=C(\C)COC1CCCO1` (stereo not drawn) [236-12-OTHF, 3-Chloro-5-(2E,6E)-3,7-dimethyl-8-(tetrahydrofuran-2-yloxy)-2,6-octadienyl-4,6-dihydroxy-2-methylbenzaldehyde] displayed a melting point of 35 to 36 °C. For the same compound, on human DHOD [1], the inhibition at 0.2 µM amounted to 86% and the concentration for half-maximal inhibition (IC50) was 33 ± 3 nM. Moreover, the inhibition at 0.1 µM on human DHOD [2] is 97%.

With `CCCCC/C(C)=C/Cc1c(O)c(Cl)c(C)c(C=O)c1O` [264-8, (E)-3-Chloro-4,6-dihydroxy-2-methyl-5-(3-methyl-2-octenyl)benzaldehyde], at human DHOD [1], the inhibition at 0.2 µM was 74% and the 50% inhibitory concentration (IC50) was found to be 71 ± 2 nM. In addition, the inhibition at 0.1 µM at human DHOD [2] came out at 90%.

Take `C/C(=C\Cc1c(O)c(Cl)c(C)c(C=O)c1O)CCCCOC(=O)C(C)(C)C` [264-11-OPiv, (5E)-7-(3-Chloro-5-formyl-2,6-dihydroxy-4-methylphenyl)-5-methyl-5-heptenyl pivalate]: on human DHOD [1], the inhibition at 0.2 µM was found to be 58% and the concentration for half-maximal inhibition (IC50) amounted to 123 ± 18 nM. Further, on human DHOD [2], the inhibition at 0.1 µM is 94%.

For the compound `CCCCCC(C)CCc1c(O)c(Cl)c(C)c(C=O)c1O` (stereo not drawn) [265-8, 3-Chloro-4,6-dihydroxy-2-methyl-5-(3-methyloctyl)benzaldehyde], the melting point is 65 to 67 °C.

With `COC(CC(=O)C(C)(C)C)/C(C)=C/CC/C(C)=C/Cc1c(O)c(Cl)c(C)c(C=O)c1O` (stereo not drawn) [271-12, 3-Chloro-4,6-dihydroxy-2-methyl-5-(2E,6E)-(8-methoxy-3,7,11,11-tetramethyl-10-oxo-2,6-dodecadienyl)benzaldehyde], on human DHOD [1], the inhibition at 0.2 µM amounted to 76% and the 50% inhibitory concentration (IC50) was 60 ± 21 nM. For the same compound, at human DHOD [2], the inhibition at 0.1 µM came to 95%.

For `Cc1c(Cl)c(O)c(CCCCCCC(C)C)c(O)c1C=O` [279-8, 3-Chloro-4,6-dihydroxy-2-methyl-5-(7-methyloctyl)benzaldehyde], the melting point fell in the range of 93 to 94 °C.

Take `C/C(=C\COC(=O)C(C)(C)C)CC/C(C)=C/Cc1c(O)c(Cl)c(C)c(C=O)c1O` [287-12-OPiv, (2E,6E)-8-(3-Chloro-5-formyl-2,6-dihydroxy-4-methylphenyl)-3,6-dimethyl-2,6-octadienyl pivalate]: on human DHOD [1], the inhibition at 0.2 µM is 82% and the half-inhibitory concentration (IC50) stood at 67 ± 3 nM. The inhibition at 0.1 µM at human DHOD [2] is 104%.

In turn, `C/C(=C\Cc1c(O)c(Cl)c(C)c(C=O)c1O)CC/C=C(\C)C1OC(C)C(C)O1` (stereo not drawn) [509-11, 3-Chloro-5-((2E,6E)-7-(4,5-dimethyl-1,3-dioxolan-2-yl)-3-methyl-2,6-octadienyl)-4,6-dihydroxy-2-methylbenzaldehyde] registered a melting point of 35 to 36 °C.

Consider `CC(C)=CCC/C(C)=C/Cc1c(O)c(Cl)c(C)c(C=O)c1O` [CC-B, (E)-3-Chloro-4,6-dihydroxy-5-(3,7-dimethyl-2,6-octadienyl)-2-methylbenzaldehyde], for which, at human DHOD [1], the inhibition at 0.2 µM is 69% and the IC50 amounted to 1050 ± 214 nM. The inhibition at 0.1 µM on human DHOD [2] came to 100%.

`COC(=O)c1c(C)cc(O)c(C/C=C(\C)CCC=C(C)C)c1O` [compound 146, Methyl (E)-3-(3,7-dimethyl-2,6-octadienyl)-2,4-dihydroxy-6-methylbenzoate] registered a melting point of 46 to 47 °C.

On to `COC(=O)c1ccc(O)c(C/C=C(\C)CCC=C(C)C)c1O` [compound 161, Methyl (E)-3-(3,7-dimethyl-2,6-octadienyl)-2,4-dihydroxybenzoate], for which the melting point is 62 °C.

In turn, `C/C(=C\Cc1c(O)c(Cl)cc(C=O)c1O)CC/C=C(\C)C1CC(=O)C(C)(C)O1` (stereo not drawn) [compound 209, 5-Chloro-2,4-dihydroxy-3-[(2E,6E)-7-(5,5-dimethyl-4-oxotetrahydrofuran-2-yl)-3,7-dimethyl-2,6-heptadienyl]benzaldehyde] displayed a melting point of 70 to 72 °C.

In the case of `CC(C)=CCC/C(C)=C/Cc1c(O)cc(C)c(C=O)c1O` [compound 216, (E)-2,4-Dihydroxy-3-(3,7-dimethyl-2,6-octadienyl)-6-methylbenzaldehyde], the melting point was in the range of 120 to 121 °C.

`CC(C)=CCC/C(C)=C/Cc1c(O)ccc(C=O)c1O` [compound 217, (E)-2,4-Dihydroxy-3-(3,7-dimethyl-2,6-octadienyl)benzaldehyde]: the melting point was 85 °C.

`CC(C)=CCC/C(C)=C/Cc1c(O)c(Cl)cc(C=O)c1O` [compound 224, (E)-5-Chloro-2,4-dihydroxy-3-(3,7-dimethyl-2,6-octadienyl)benzaldehyde] returned a melting point of 94 to 95 °C.

As to `Cc1c(Cl)c(O)c(CCCCCCCC2CC(=O)C(C)(C)O2)c(O)c1C=O` (stereo not drawn) [compound 250, 5-Chloro-2,4-dihydroxy-6-methyl-3-[7-(3,3-dimethyl-4-oxo-2-oxacyclopentyl)heptyl]benzaldehyde], the melting point lay within 70 to 71 °C.
